The record followed here is US20240218344A1, “LIQUID THROMBIN REAGENT” (Instrumentation Laboratory Company, priority 2022, published 2024).

Format in all cases: biochemical
For series [1], the system named is bovine thrombin. Kind of series: Stability of liquid thrombin reagent with apixaban, clotting assay. Particulars: 500 ng/ml apixaban, approximately 100 U/mL bovine thrombin, stored at 45° C. for 0-14 days; FIG. 3. As for the experimental part:
In the clotting assay, the liquid thrombin reagent was diluted with an aqueous buffer to a final thrombin concentration of within 5 to 15 U/mL of thrombin. Then, 20 to 40 microliters (μL) of the diluted liquid thrombin reagent was mixed with 80 μL of a reaction buffer containing 20 mM HEPES, pH 7.4, containing 150 mM NaCl and 0.5% BSA (bovine serum albumin). After an incubation period of 60 to 90 seconds at 37° C., 80 μL of normal pooled plasma was added to the mixture and the time to clot was determined using a threshold algorithm. In this experiment, the effects of the direct factor Xa inhibitor apixaban was analyzed using a clotting assay. Liquid thrombin reagent containing low purity grade bovine thrombin was diluted to a final concentration of approximately 100 U/mL thrombin in an aqueous buffer containing 20 mM MES, pH 6.1, 100 mM NaCl, 25 mM sodium acetate, 25 mM sodium lactate, 5 mM CaCl2, 0.5% BSA, and 0.4 g/L NaN3. Apixaban was dissolved in dimethyl sulfoxide (DMSO) and diluted to a final concentration of 500 ng/ml apixaban in a sample of the liquid thrombin reagent. Liquid thrombin reagents with and without apixaban were stored at 45° C. for 0, 2, 4, 7, 10 and 14 days, and tested in quadruplicate by the clotting assay after mixture with normal pooled plasma. […]

A further series concerns factor Xa. Put plainly: Factor Xa chromogenic assay with guanidine and guanidine derivatives. Particulars: dilution series in water, 6 nkat/mL factor Xa, substrate S-2732, 405 nm; FIG. 4. As for the experimental part: In this experiment, the effects of guanidine sulfate and the guanidine derivatives: 1-methylguanidine sulfate, 1,1-dimethylguanidine sulfate, 1,1-diethylguanidine, and N-benzyl, N-methylguanidine sulfate were analyzed using a chromogenic assay. A series of dilutions was prepared in water with guanidine or a guanidine derivative of the type described herein. 40 μL of each of the guanidine or guanidine derivatives were mixed for 20 to 60 seconds with 40 μL of 6 nanokatal per milliliter (nkat/mL) factor Xa diluted in 20 mM HEPES, pH 7.5 buffer. After an incubation period of 150 to 180 seconds, 100 μL of the factor Xa chromogenic substrate S-2732 (1.5 mM) was added to each of the guanidine and factor Xa mixtures and was chromogenically measured at 405 nm milli-absorbance per minute (mAbs/min) after a 20 second delay.

Series [2] concerns the target bovine thrombin (Bos taurus, UniProt P00735). Put plainly: Stability of liquid thrombin reagent with alkylated guanidine derivatives, clotting assay. Particulars: 25 mM guanidine derivative, approximately 75 U/mL bovine thrombin, MES pH 6.3, stored at 37° C. for 7 or 14 days; FIG. 5. As for the experimental part:
(§1) In the clotting assay, the liquid thrombin reagent was diluted with an aqueous buffer to a final thrombin concentration of within 5 to 15 U/mL of thrombin. Then, 20 to 40 microliters (μL) of the diluted liquid thrombin reagent was mixed with 80 μL of a reaction buffer containing 20 mM HEPES, pH 7.4, containing 150 mM NaCl and 0.5% BSA (bovine serum albumin). After an incubation period of 60 to 90 seconds at 37° C., 80 μL of normal pooled plasma was added to the mixture and the time to clot was determined using a threshold algorithm.
The effects of guanidine derivatives were analyzed using a clotting assay. In this experiment, liquid thrombin reagents containing bovine thrombin were diluted to a final concentration of approximately 75 U/mL thrombin with an aqueous buffer comprising a MES buffer containing 20 mM MES, pH 6.3, and 0.1% ProClin™ 300, with and without 25 mM of 1-methylguanidine (MMG), 25 mM of 1.1-dimethylguanidine (DMG) and 25 mM of 1,1-diethylguanidine (DEG).
Liquid thrombin reagents of the type described herein containing guanidine derivatives, and one without a guanidine derivative, were stored at 37° C. for 0, 7, and 14 days and tested using the clotting assay after mixing with normal pooled plasma.

In series [3] the test system is thrombin. Kind of series: Alkylated guanidine concentrations for thrombin stability, clotting assay. Particulars: less than 20 mM DMG, 7 U/mL thrombin, 37° C. for 20 days versus 2 to 8° C.; FIG. 6. The procedure: as §1
A series of liquid thrombin reagents containing dimethylguanidine (DMG) were analyzed using a clotting assay. A series of liquid thrombin reagents containing 7 U/mL liquid thrombin were prepared in an aqueous buffer containing 20 mM MES, pH 6.3, 0.1% ProClin™ 300, and a final concentration of 5, 10, 15, 20, 25, or 30 mM DMG. The resulting liquid thrombin reagents were stored at 37° C for 20 days, and the remaining thrombin activity was compared to the liquid thrombin reagent containing the same concentration of guanidine derivative stored at 2 to 8° C. for 20 days.

The subject of series [4] is thrombin. Put plainly: Thrombin concentrations for liquid thrombin reagent stability, clotting assay. Particulars: 30 mM DMG, 37° C. for 7 days, FIG. 7. The procedure: as §1
The effect of guanidine derivatives on a series of thrombin concentrations were analyzed using a clotting assay. A series of liquid thrombin reagents containing 30 mM DMG were prepared by diluting a 100 U/mL thrombin liquid thrombin reagent in MES buffer (containing 30 mM DMG, 20 mM MES, pH 6.3, and 0.1% ProClin™ 300) with MES buffer to final concentrations of 70, 56, 42, 28, 14 or 7 U/mL thrombin. The liquid thrombin reagents were stored at 37° C. for 7 days and tested for thrombin activity using the clotting assay.

The structures appear in SMILES notation. Counter-ions that a name gives are not always drawn.

For the compound `COc1ccc(-n2nc(C(N)=O)c3c2C(=O)N(c2ccc(N4CCCCC4=O)cc2)CC3)cc1` [apixaban], the “stability of the liquid thrombin reagent (time-to-clot versus reagent without apixaban)” value with bovine thrombin [1] is “improves the stability of the liquid thrombin reagent in the long term”.
As to `CCN(CC)C(=N)N` [diethylguanidine sulfate, 1,1-diethylguanidine], the “factor Xa inhibition” value in the series on factor Xa is given as “largest extent of factor Xa inhibition”. In addition, the “thrombin activity after storage” value on bovine thrombin [2] is “little or no decrease in thrombin activity”.
As for `N=C(N)N.N=C(N)N.O=S(=O)(O)O` [guanidine sulfate, reference compound], the “factor Xa inhibition” value in the series with factor Xa was “least reduction in factor Xa inhibition”.
For the compound `CN(Cc1ccccc1)C(=N)N.O=S(=O)(O)O` [N-benzyl N-methylguanidine sulfate, N-benzyl, N-methylguanidine sulfate], in the series with factor Xa, the “factor Xa inhibition” value is given as “reduced factor Xa inhibition”.
On to `CN(C)C(=N)N.O=S(=O)(O)O` [dimethylguanidine sulfate, 1,1-dimethylguanidine sulfate], for which the “factor Xa inhibition” value with factor Xa is reported as “largest extent of factor Xa inhibition”. In addition, the “thrombin activity after storage” value at bovine thrombin [2] is on record as “little or no decrease in thrombin activity”. Moreover, the remaining thrombin activity entry in the series on thrombin [3] is listed as “declined”; in the series with thrombin [4] (less than about 20 U/mL thrombin), “declined”; in the series on thrombin [4] (more than about 20 U/mL thrombin), “did not decline significantly”.
Take `CNC(=N)N.O=S(=O)(O)O` [1,1 methylguanidine sulfate, 1-methylguanidine sulfate]: the “thrombin activity after storage” value at bovine thrombin [2] is listed as “little or no decrease in thrombin activity”.
